# Target: T1, AHR (UniProt P35869)
# T1 sequence (P35869 1-848): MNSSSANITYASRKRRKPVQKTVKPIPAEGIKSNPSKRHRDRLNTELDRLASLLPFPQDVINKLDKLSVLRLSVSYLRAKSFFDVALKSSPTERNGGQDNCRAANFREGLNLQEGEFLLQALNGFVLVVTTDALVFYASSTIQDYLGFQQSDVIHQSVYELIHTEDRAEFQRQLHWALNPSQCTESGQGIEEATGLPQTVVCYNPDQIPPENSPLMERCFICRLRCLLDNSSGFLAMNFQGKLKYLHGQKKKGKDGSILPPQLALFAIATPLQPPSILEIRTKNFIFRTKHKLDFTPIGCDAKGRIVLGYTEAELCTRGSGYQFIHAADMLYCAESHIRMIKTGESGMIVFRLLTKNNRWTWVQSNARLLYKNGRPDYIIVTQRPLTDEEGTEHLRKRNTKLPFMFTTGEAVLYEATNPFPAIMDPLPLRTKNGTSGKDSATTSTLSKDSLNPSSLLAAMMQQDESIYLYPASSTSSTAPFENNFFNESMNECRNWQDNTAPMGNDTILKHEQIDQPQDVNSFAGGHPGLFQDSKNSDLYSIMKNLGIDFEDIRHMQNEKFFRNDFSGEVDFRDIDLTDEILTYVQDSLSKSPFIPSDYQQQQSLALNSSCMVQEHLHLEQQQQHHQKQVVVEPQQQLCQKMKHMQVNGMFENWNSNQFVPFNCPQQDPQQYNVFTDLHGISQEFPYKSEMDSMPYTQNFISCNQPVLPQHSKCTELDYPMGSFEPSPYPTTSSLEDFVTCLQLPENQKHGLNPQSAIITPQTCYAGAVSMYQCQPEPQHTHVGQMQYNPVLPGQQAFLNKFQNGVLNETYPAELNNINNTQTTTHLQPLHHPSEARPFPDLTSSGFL
# Test: DRE-Luciferase Reporter Assay (Example 1A)
# Format: cell-based
# Set-up: IC50
# Conditions: concentration which inhibits half of the luciferase activity induced by an AHR activating ligand; murine (Hepa1-6, Hepa-1c1c7) or human (HepG2) DRE-luciferase reporter cells, cell line used not stated
# Description: AHR binds to Dioxin Responsive Elements (DRE) upstream of genes that it activates. One measure of AHR activity is activation of a reporter gene, such as luciferase, downstream of one or multiple DRE elements. Luciferase activity will reflect activation and inhibition of AHR in the cells expressing his reporter.
# Murine Hepa1-6 or Hepa-1c1c7 or other murine cell line with a DRE-luciferase reporter either stably or transiently transfected were plated in media in plates (96-well, 384-well or other plates) and incubated overnight at 37° C. in a CO2 incubator. Likewise, human HepG2 or other human cell line with a DRE-luciferase reporter either stably or transiently transfected were plated in media in plates (96-well, 384-well or other plates) and incubated overnight at 37° C. in a CO2 incubator.
# The next day, an AHR activating ligand, such as TCDD, kynurenine, ITE (2-(1H-indole-3-ylcarbonyl)-4-thiazolecarboxylic methyl ester), VAF347, BNF (beta-naphthoflavone), FICZ (6-formylindolo(3,2-b) carbazole or other AHR ligands, was added with or without AHR antagonist.
# Cells were incubated for 4, 15 or 24 hours or another time point and then lysed for determination of luciferase activity as a read-out of the AHR activation or inhibition. Luciferase was measured with a commercial kit such as the Promega Luciferase kit or any kit or reagents that provide the luciferin substrate for measuring luciferase activity. The level of luciferase with only activating ligand added was the maximum signal while the luciferase with no ligand was the minimum signal. IC50 values were determined as the concentration which inhibits half of the luciferase activity.
row,SMILES,IC50
1,Cc1cc(C(=O)N2CCCc3ccccc32)ccc1NC(=O)c1ccnn1C [I-1],> 1500 nM
2,Cc1cc(C(=O)N2CCc3ccccc32)ccc1NC(=O)c1ccnn1C [I-2],> 1500 nM
3,Cc1cc(C(=O)Nc2ncccc2C)ccc1NC(=O)c1ccnn1C [I-3],> 1500 nM
4,Cc1cc(C(=O)n2ccc3ccccc32)ccc1NC(=O)c1ccnn1C [I-4],> 1500 nM
5,"Cc1ccccc1/C=C/c1ccc(NC(=O)c2ccnn2C)c(C)c1 [I-5, (E)-1-methyl-N-(2-methyl-4-(2-methylstyryl)phenyl)-1H-pyrazole-5-carboxamide]",< 500 nM
6,"Cc1ccccc1CCc1ccc(NC(=O)c2ccnn2C)c(C)c1 [I-6, 1-methyl-N-(2-methyl-4-(2-methylphenethyl)phenyl)-1H-pyrazole-5-carboxamide]",> 1500 nM
7,"Cc1ccccc1/C=C\c1ccc(NC(=O)c2ccnn2C)c(C)c1 [I-7, (Z)-1-methyl-N-(2-methyl-4-(2-methylstyryl)phenyl)-1H-pyrazole-5-carboxamide]",> 1500 nM
8,"Cc1ccccc1NC(=O)c1ccc(NC(=O)c2ccnn2C)c(C)c1 [I-8, 1-methyl-N-(2-methyl-4-(o-tolylcarbamoyl)phenyl)-1H-pyrazole-5-carboxamide]",> 1500 nM
9,"Cc1cc(NC(=O)c2ccccc2C)ccc1NC(=O)c1ccnn1C [I-9, 1-methyl-N-(2-methyl-4-(2-methylbenzamido)phenyl)-1H-pyrazole-5-carboxamide]",> 1500 nM
10,"Cc1ccccc1CNc1ccc(NC(=O)c2ccnn2C)c(C)c1 [I-10, 1-methyl-N-(2-methyl-4-((2-methylbenzyl)amino)phenyl)-1H-pyrazole-5-carboxamide]",> 1500 nM
11,"Cc1ccccc1NCc1ccc(NC(=O)c2ccnn2C)c(C)c1 [I-11, 1-methyl-N-(2-methyl-4-((o-tolylamino)methyl)phenyl)-1H-pyrazole-5-carboxamide]",> 1500 nM
12,"Cc1ccccc1NC(=O)c1ccc(NC(=O)c2ccnn2C)c(C)n1 [I-12, 6-Methyl-5-(1-methyl-1H-pyrazole-5-carboxamido)-N-(o-tolyl)picolinamide]",500 to 1000 nM
13,Cc1cc(C(=N)Nc2ncccc2C)ccc1NC(=O)c1ccnn1C [I-13],> 1500 nM
14,Cc1ccccc1/N=N/c1ccc(NC(=O)c2ccccn2)c(C)c1 [I-14],> 1500 nM
15,"Cc1ccccc1NCc1ccc(NC(=O)c2ccnn2C)c(C)n1 [I-15, 2-Methyl-N-[2-methyl-6-[(2-methylanilino)methyl]-3-pyridyl]pyrazole-3-carboxamide]",1000 to 1500 nM
16,Cc1cc(N)ccc1NC(=O)c1ccnn1C [I-16],> 1500 nM

row,SMILES,IC50
1,"Cc1cc(COc2ccccc2C)ccc1NC(=O)c1ccnn1C [I-18, 2-Methyl-N-[2-methyl-4-[(2-methylphenoxy)methyl]phenyl]pyrazole-3-carboxamide]",< 500 nM
2,Cc1cc(/C=C/c2cccnc2C)ccc1NC(=O)c1ccnn1C [I-19],> 1500 nM
3,"Cc1cc(/C=C/c2ccccc2)ccc1NC(=O)c1ccnn1C [I-20, 2-Methyl-N-[2-methyl-4-[(E)-styryl]phenyl]pyrazole-3-carboxamide]",< 500 nM
4,Cc1cc(C2OC2c2ccccc2)ccc1NC(=O)c1ccnn1C (centres unmarked) [I-21],> 1500 nM
5,"Cn1nccc1C(=O)Nc1ccc2nc(-c3ccccc3)ccc2c1 [I-22, 2-Methyl-N-(2-phenyl-6-quinolyl)pyrazole-3-carboxamide]",< 500 nM
6,"Cc1cc(C2OC2c2ccccc2C)ccc1NC(=O)c1ccnn1C (centres unmarked) [I-23, 2-Methyl-N-[2-methyl-4-[3-(o-tolyl)oxiran-2-yl]phenyl]pyrazole-3-carboxamide]",< 500 nM
7,"Cc1ccccc1/N=N/c1ccc(NC(=O)c2ccnn2C)cc1C [I-24, 2-Methyl-N-[3-methyl-4-[(E)-o-tolylazo]phenyl]pyrazole-3-carboxamide]",< 500 nM
8,"Cc1ccccc1/N=N/c1ccc(C(=O)Nc2ccnn2C)c(C)c1 [I-25, 2-Methyl-N-(2-methylpyrazol-3-yl)-4-[(E)-o-tolylazo]benzamide]",< 500 nM
9,Cc1cc(/N=N/c2ncccc2C)ccc1NC(=O)c1ccnn1C [I-26],> 1500 nM
10,"Cc1ccccc1/C=C/c1ccc(NC(=O)c2ccnn2C)cc1 [I-27, 2-Methyl-N-[4-[(E)-2-(o-tolyl)vinyl]phenyl]pyrazole-3-carboxamide]",500 to 1000 nM
11,"Cc1ccccc1C#Cc1ccc(NC(=O)c2ccnn2C)c(C)c1 [I-29, 2-Methyl-N-[2-methyl-4-[2-(o-tolyl)ethynyl]phenyl]pyrazole-3-carboxamide]",< 500 nM
12,Cc1ccccc1-c1ccc2cc(NC(=O)c3ccnn3C)ccc2n1 [I-30],> 1500 nM
13,Cc1cc(-c2cc3ccccc3cn2)ccc1NC(=O)c1ccnn1C [I-31],> 1500 nM
14,Cc1cc(-c2ccc3ccccc3c2)ccc1NC(=O)c1ccnn1C [I-32],> 1500 nM
15,Cc1ccccc1/C=C/c1ccc(NC(=O)c2ccn[nH]2)c(C)c1 [I-36],> 1500 nM
16,Cc1ccccc1/C=C/c1ccc(NC(=O)c2cncn2C)c(C)c1 [I-37],> 1500 nM

# From patent publication US11555026B2, “AHR inhibitors and uses thereof” (Ikena Oncology, Inc., priority 2017, dated 2023)
